Reference: patent US20130039956A1, “USE OF NITROCARBOXYLIC ACIDS FOR THE TREATMENT, DIAGNOSIS AND PROPHYLAXIS OF AGGRESSIVE HEALING PATTERNS” (priority 2010, published 2013)

Legend:
[1] = system: human umbellical endothelial cells (HUVEC); assay: Adhesion, propagation and growth of endothelial cells on coated polystyrene films; type: cell-based; conditions: days 3, 7, 14, compared with native FA
Method: Polystyrene scaffolds were prepared and pretreated in the same manner as performed in example 1 by using the same nitrocarboxylic acids as listed in table 1. The film samples were placed in a culture dish containing a gel matrix, in which human umbellical endothelial cells (HUVEC) had been allowed to grow to confluence. The culture medium consisted of 5% FCS, which was replaced every 5 days. Cultivation was performed according to standard conditions. Films were evaluated at days 3, 7, and 14 after careful extraction from the culture dishes, rinsing with saline solution, and staining with methylene blue. Using a reflected light microscope, the films were immediately examined to evaluate the following: Propagation of cells to the film center, cell confluidity, multilayer formation, and cell shape.

human dermal fibroblasts = assay: Extra cellular matrix production (collagen-1) in response to TGF-β2 in dermal fibroblasts; type: cell-based; conditions: 10 and 50 μmol, TGF-β2 25 ng/ml, 48 hours; compared with native FA
Method: In order to determine whether PPRA gamma stimulation due to nitrated fatty acids plays a role in the inventive inhibition of an aggressive healing pattern to an irritating stimulus, human dermal fibroblasts were investigated. A dominant-negative PPAR gamma mutant (L466A) cell clone was generated by polymerase chain reaction-based site-directed mutagenesis. Presence of PPAR gamma or absence was investigated using a PPAR gamma antibody reaction which was determined using an enhanced chemiluminescence detection system. Furthermore, one cell series was incubated with a selective irreversible PPAR gamma ligand (GW9662, 1 μmol), which effectively blocks PPAR gamma receptors.
Sequential cultivation of human dermal fibroblasts was performed in EMEM containing 5 mM glucose supplemented with 10% FCS under standard cultivation conditions. Cells were allowed to grow to confluence in a 96-well plate. Wild-type fibroblasts and PPAR gamma deficient fibroblasts were investigated by a set-up of 2×10 sample sets comprising: (1) blank control; (2) stimulation control; (3) preincubation with the PPAR gamma antagonist GW9662 (Cayman Chemical); (4) preincubation with the PPAR agonist troglitazone (25 μmol). In 2×4 sample sets, native fatty acids were added to the medium to achieve a final concentration of 10 and 50 μmol, respectively; in another 2×4 sets the nitrated fatty acids were added to the medium in the same concentration, while 2×2 sets served as controls. In 10 of the sets, TGF-β2 was added to the culture medium at a concentration of 25 ng/ml. Cultivation was continued for 48 hours and then processed in order to analyze collagen-1 as measured by enhanced chemiluminescence detection of immuncomplexes.

adult rats = assay: Fibrogenesis after traumatic and thermal tissue damage in dermal wound healing in vivo; design: species or system rat; conditions: 100 micromol ethanolic solution on wound margins, 8 weeks, compared with native FA
Excerpt: In order to determine the effects of nitrated fatty acids on fibrogenesis in response to traumatic and thermal tissue damage, an in vivo rat model was investigated. Paravertebral scalpel incision (two on each side) of approximately 1 cm in length and a depth of 1 mm were made in 12 anesthetized adult rats (150-200 g) of either sex after disinfection. Bleeding was stopped by manual compression. The entire length of the wound margins of one incision at each side were additionally cauterized using a 3-mm ball electrode connected to a DRE ASG-120 electrosurgical generator. Wound margins of one side were then covered with a sterile ethanolic 0.9% saline solution, or with a sterile ethanolic solution of the fatty acids (100 micromol), or with a sterile ethanolic solution of the nitrated fatty acids (100 micromol) using a sterile brush. A 1×10 mm cotton string that was bathed in the ethanolic solution containing 0.9% saline, native fatty acid or nitrated fatty acids was placed upon the incision site that had been closed by manual adaptation. The adaptation result and the cotton strings were fixed by an adhesive film. The animals were housed and fed according to institutional standards. The wound films were carefully removed after 2 weeks. Animals were euthanized after 8 weeks. The skin wounds were harvested, including the epidermis, dermis, and subcutaneous loose tissue with the surrounding normal tissue. The removed tissues were fixed in formalin and then embedded in paraffin. The cutting plane was vertical to the longitudinal axis of the former incisions. Slices (4-6 μm) were stained with H&E and Masson trichrome staining to evaluate the amount and density of collagen.

fibroblasts [2] = assay: Biofouling and cell adherence at prosthetic materials (dip-coated polymer films); type: cell-based; conditions: compared with native FA (control)
Method: Polymer scaffolds (polyurethane, polyvinylchloride, polylactate) which are used as implant materials were investigated. Solid and porous (pore sizes ranging from 50 to 150 micrometer) films of pure polymer scaffolds were cut into pieces (5×5 mm). After cleaning with NaOH and ethanol, they were dip-coated with native and nitrocarboxylic acids. Dip-coated pieces were suspended in a tube filled with argon and heated at 60° C. for 24 hours in the dark. Film pieces with and without coating were placed in a borosilicate glass tube that allowed fixation of two margins of the film pieces at the wall of the glass tube, thus, enabling a upright standing position in the center of the tube. Tubes were filled with various solutions for 12 hours. Solutions consisted of the following: 0.9% saline; 2% bovine albumin; 2% bovine albumin with addition of either fibronectin or laminin; and bovine serum. At the end of the exposure time, tubes were gently washed twice with 0.9% saline solution. One set of films was analyzed for protein absorption using a specific antibody staining method. An identically prepared set of films was further processed for cell cultures. A suspension containing preincubated fibroblasts in 1% FCS was added to the film-containing tubes. The tubes were tilted and adjusted in such a position so that the films were in a vertical orientation within the suspension. […] Tubes had two openings at the upper half (of the tilt tubes) that allowed free exchange of the atmosphere above the solution with the surrounding atmosphere. Sets were incubated at standard conditions for 24, 48, and 96 hours, respectively. Thereafter, films were carefully removed and rinsed with 0.9% saline solution. The cellularity and the shape of the cells on both sides of the films were evaluated after staining (Gimsa) using a reflected light microscope.

fibroblasts [3] = assay: Mechanical alteration of fibroblasts (cyclic stretching of coated polypropylene meshes); type: cell-based; conditions: cyclic stretching, day 7, day 21, 8 weeks, compared with native FA
Excerpt: In order to simulate the effects of chronic shear forces on a healing wound, an in vitro model was established. A flat balloon was placed on the bottom of a Petri dish. A silicone sheet was placed above and sealed with the side of the Petri dish. Then a 3 mm agar layer was casted on top of the sheet. Commercially available polypropylene meshes for hernia repair (microporous mesh, a low-weight and macroporous mesh with absorbable polyglactin filaments, and a heavy-weight and microporous mesh) were placed on the agar plates and fixed at 4 points at the side of the Petri dish. This setting enabled stretching of the meshes by filling the balloons with air, which was performed at 10-second intervals using an automated pumping device. The model can be used to evaluate the effect of three-dimensional (3D) shear forces on cell growth during cell cultivation. Preincubated suspensions of fibroblasts (1.5×10(5) cells) in a culture medium (10% FCS) were added to the culture dishes and allowed to grow for 48 hours. Cyclic stretching was started at day 3. Histological analysis was performed from the central portions of the meshes at day 7, at day 21, and after 8 weeks. The scaffolds were detached from the culture plate and carefully rinsed. Then, they were cut into pieces, casted, and further processed for standard histology and immunohistology. Care was taken to achieve a cutting plane that was vertical to the surface plane of the meshes. Histological analysis evaluated the cellularity, the content of extra cellular matrix (ECM), and the magnitude of protein synthesis. Meshes were dip-coated with native and nitro fatty acids or left blank in the same manner as in example 1. The uncoated meshes served as controls.
Note: key: 0: not superior to native FA (control); +: Superior to native FA; ++: superior to both; +++: outstanding effect.

Molecule	Relative differences: effect on adhesion, propagation and growth of endothelial cells [1]	Relative effect on collagen-1 production in response to TGF-β2 (human dermal fibroblasts)	Relative effect on fibrogenesis (scar formation) in dermal wound healing (adult rats)	Relative differences: effect on biofouling and cell adherence (fibroblasts [2])	Relative effect on fibroblasts under mechanical alteration (fibroblasts [3])
5-nitro-eicosatrienoic acid [compound 4]	+	+	+	+	+
9,10-nitro-cis-oleic acid [compound 10]	++	++	++	+++	++
9,10-nitro-trans-oleic acid [compound 15]	+	+	+	++	+
CCCCCCCC/C=C(/CCCCCCCC(=O)O)[N+](=O)[O-] [compound 1, 9-nitro cis-oleic acid]	++	+++	++	++	+++
CCCCC/C=C\C/C(=C\CCCCCCCC(=O)O)[N+](=O)[O-] [compound 2, 10-nitro-cis-linoleic acid]	+++	++	+++	++	+++
CCCCCCCC/C(=C/CCCCCCCC(=O)O)[N+](=O)[O-] [compound 3, 10-nitro-cis-oleic acid]	++	++	++	++	++
CCCCC/C=C(/C/C=C\C/C=C\C/C=C\C/C=C\CCC(=O)O)[N+](=O)[O-] [compound 5, 16-nitro-all-cis-4,7,10,13,16-docosapentaenoic acid]	++	+	0	++	++
CC/C=C\C/C=C\C/C=C(/CCCCCCCC(=O)O)[N+](=O)[O-] [compound 6, 9-nitro-all-cis-9-12,15-octadecatrienoic acid]	++	++	++	++	++
CC/C=C\C/C=C\C/C(=C/C/C=C\C/C=C\CCCCCC(=O)O)[N+](=O)[O-] [compound 7, 14-nitro-all-cis-7,10,13,16,19-docosapentaenoic acid]	+	+	0	++	+
CCCCCCCC/C=C(/CCCCCCCCCCCCCC(=O)O)[N+](=O)[O-] [compound 8, 15-nitro-cis-15-tetracosenoic acid]	+	0	+	+	+
CCCCCCCC/C=C(\CCCCCCCC(=O)O)[N+](=O)[O-] [compound 9, 9-nitro-trans-oleic acid]	+	+	+	+	+
CCCCC=C(C=CC=CCCCCCCCC(=O)O)[N+](=O)[O-] [compound 11, 13-nitro-octadeca-9,11,13-trienoic acid]	+	+	+	+	+
CCCCCCCC/C(=C\CCCCCCCC(=O)O)[N+](=O)[O-] [compound 12, 10-nitro-trans-oleic acid]	+	+	0	+	+
CCCCCCCCCCC/C=C(/CCCCC(=O)O)[N+](=O)[O-] [compound 21, 6-nitro-cis-6-octadecenoic acid]	0	++	++	–	+
